Test results as given in PMC7112232, “Computational design of substrate selective inhibition” (PLoS Computational Biology, 2020).

Tests used:
[1] = molecular target: T1, Prolyl Oligopeptidase (POP) (Homo sapiens, UniProt P48147); assay: RP-HPLC cleavage assay with purified rhPOP (TRH as substrate); Km/Vmax and Dixon plots; assay type: biochemical
T1 construct: gene PREP; recombinant human POP (rhPOP), GST moiety removed
T1 sequence (P48147 1-710): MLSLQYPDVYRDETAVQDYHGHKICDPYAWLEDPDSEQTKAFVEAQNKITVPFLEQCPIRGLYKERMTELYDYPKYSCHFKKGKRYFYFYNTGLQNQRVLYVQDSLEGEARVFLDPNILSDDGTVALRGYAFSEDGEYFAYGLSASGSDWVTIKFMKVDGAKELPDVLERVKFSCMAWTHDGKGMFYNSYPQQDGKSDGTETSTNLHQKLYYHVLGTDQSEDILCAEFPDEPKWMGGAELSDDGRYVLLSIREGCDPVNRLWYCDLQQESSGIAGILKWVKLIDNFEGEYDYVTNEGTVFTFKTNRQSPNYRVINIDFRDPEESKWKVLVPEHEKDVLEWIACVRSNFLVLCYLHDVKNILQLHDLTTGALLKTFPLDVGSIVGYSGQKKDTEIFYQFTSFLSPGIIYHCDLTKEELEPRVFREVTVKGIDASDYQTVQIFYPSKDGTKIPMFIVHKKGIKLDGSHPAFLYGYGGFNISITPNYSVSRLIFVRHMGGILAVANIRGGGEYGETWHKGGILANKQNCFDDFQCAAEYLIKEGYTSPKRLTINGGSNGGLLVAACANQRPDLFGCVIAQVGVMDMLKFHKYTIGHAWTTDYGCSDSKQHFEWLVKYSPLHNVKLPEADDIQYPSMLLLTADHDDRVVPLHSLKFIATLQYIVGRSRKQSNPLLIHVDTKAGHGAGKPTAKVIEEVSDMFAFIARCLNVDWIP

[2] = molecular target: T1, Prolyl Oligopeptidase (POP); assay: RP-HPLC cleavage assay with purified rhPOP (TRH as substrate); Dixon plots; assay type: biochemical

| Compound | IC50 [1] [µM] | IC50 [2] [µM] |
| --- | --- | --- |
| CCOC(=O)CN1C(=O)NC(CC)(c2ccccc2)C1=O (centres unmarked) [T5450157] | 130 |  |
| O=C(CCC(=O)N1CCCC1)c1ccccc1 [T6816369] |  | 32.1 |
